# Results taken from the supplement of paper PMC7017272.
# ± gives the standard deviation of the averaged measurements.
# Assays:
# UT-SCC-8 = assay: drug sensitivity score (DSS); higher = more sensitive; extreme values may be limits of the assay; settings: treatment time: 3 days
# In short: (§1)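 HPV-negative HNSCC cell lines were plated at 500 cells/well in 384-well plates, either on plastic, on wells coated with Matrigel or Myogel (500 µg/mL), or embedded in Matrigel or Myogel plus rat collagen I. Each compound was tested at five 10-fold concentrations over 3 days. Viability was measured by CellTiter-Glo 2.0 luminescence, and IC50, maximal inhibition and drug sensitivity score came from percent-inhibition dose–response curves fitted in the FIMM pipeline after normalisation to vehicle (0.1% DMSO) and cell-killing control wells.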
# UT-SCC-24B = assay: as above; settings: treatment time: 3 days
# In short: as §1
# UT-SCC-42B [1] = assay: as above; settings: treatment time: 3 days
# In short: as §1
# UT-SCC-73 [2] = assay: as above; settings: treatment time: 3 days
# In short: as §1
# UT-SCC-81 [3] = assay: as above; settings: treatment time: 3 days
# In short: as §1
# UT-SCC-40 = assay: as above; settings: treatment time: 3 days
# In short: as §1
# UT-SCC-106A = assay: as above; settings: treatment time: 3 days
# In short: as §1
# UT-SCC-44 [4] = assay: as above; settings: treatment time: 3 days
# In short: as §1
# UT-SCC-42A [5] = assay: as above; settings: treatment time: 3 days
# In short: as §1
# UT-SCC-28 = assay: as above; settings: treatment time: 3 days
# In short: as §1
# UT-SCC-14 [6] = assay: as above; settings: treatment time: 3 days
# In short: as §1
# UT-SCC-24A = assay: relative IC50 (midpoint of the fitted curve; maximal inhibition may be below 50%); higher = less potent; settings: treatment time: 3 days
# Method: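 HNSCC cell lines (500 cells/well, 384-well) were cultured on plastic, on top of (2D) or embedded (3D) in Matrigel or human leiomyoma matrix Myogel (500 ug/mL; Myogel 3D mixed with rat collagen I). Cells were treated for 3 days with 5 ten-fold concentrations of each drug, and viability was read by CellTiter-Glo. Viability was normalised to DMSO (0% inhibition) and 100 uM benzethonium chloride (100% inhibition) controls and fitted with the FIMM DSRT pipeline to give IC50 (nM), maximal % inhibition and the drug sensitivity score (DSS). Suffixes _1/_2/_3 on drug names are replicates.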
# UT-SCC-42B [7] = assay: relative IC50 (midpoint of the fitted curve; maximal inhibition may be below 50%); higher = less potent; settings: treatment time: 3 days
# In short: as §1
# UT-SCC-73 [8] = assay: as above; settings: culture condition: embedded in Matrigel; treatment time: 3 days
# In short: as §1
# UT-SCC-81 [9] = assay: as above; settings: treatment time: 3 days
# In short: as §1
# UT-SCC-44 [10] = assay: as above; settings: treatment time: 3 days
# In short: as §1
# UT-SCC-42A [11] = assay: as above; settings: treatment time: 3 days
# In short: as §1
# UT-SCC-14 [12] = assay: as above; settings: treatment time: 3 days
# In short: as §1
# [13] = culture condition: embedded in Matrigel
# [14] = culture condition: embedded in Myogel + collagen I
# [15] = culture condition: on top of Matrigel
# [16] = culture condition: on top of Myogel
# [17] = culture condition: plastic 2D (no matrix)
compound,measurement,setting,value
CN(C)C/C=C/C(=O)Nc1cc2c(Nc3ccc(F)c(Cl)c3)ncnc2cc1O[C@H]1CCOC1 [Afatinib],drug sensitivity score,UT-SCC-8; [13],19.8 ± 0.42 DSS
same,drug sensitivity score,UT-SCC-8; [14],0.333 ± 0.58 DSS
same,drug sensitivity score,UT-SCC-8; [15],19 ± 0.44 DSS
same,drug sensitivity score,UT-SCC-8; [16],8.37 ± 4.4 DSS
same,drug sensitivity score,UT-SCC-8; [17],18 ± 1.5 DSS
same,drug sensitivity score,UT-SCC-24B; [13],11.4 ± 0.72 DSS
same,drug sensitivity score,UT-SCC-24B; [14],4.57 ± 0.58 DSS
same,drug sensitivity score,UT-SCC-24B; [15],10.9 ± 0.96 DSS
same,drug sensitivity score,UT-SCC-24B; [16],2.3 ± 0.7 DSS
same,drug sensitivity score,UT-SCC-24B; [17],16.1 ± 0.56 DSS
same,drug sensitivity score,UT-SCC-42B [1]; [13],15.7 ± 1.7 DSS
same,drug sensitivity score,UT-SCC-42B [1]; [15],11.6 ± 1.6 DSS
same,drug sensitivity score,UT-SCC-42B [1]; [16],0 DSS
same,drug sensitivity score,UT-SCC-42B [1]; [17],6.6 ± 0.72 DSS
same,drug sensitivity score,UT-SCC-73 [2]; [13],2.43 ± 1.8 DSS
same,drug sensitivity score,UT-SCC-73 [2]; [14],3.1 ± 5.4 DSS
same,drug sensitivity score,UT-SCC-73 [2]; [15],0 DSS
same,drug sensitivity score,UT-SCC-73 [2]; [16],0.433 ± 0.75 DSS
same,drug sensitivity score,UT-SCC-73 [2]; [17],1.47 ± 1.2 DSS
same,drug sensitivity score,UT-SCC-81 [3]; [13],23 ± 2.7 DSS
same,drug sensitivity score,UT-SCC-81 [3]; [14],6.47 ± 11 DSS
same,drug sensitivity score,UT-SCC-81 [3]; [15],18.5 ± 2.3 DSS
same,drug sensitivity score,UT-SCC-81 [3]; [16],1.6 ± 0.66 DSS
same,drug sensitivity score,UT-SCC-81 [3]; [17],12.5 ± 1.2 DSS
same,drug sensitivity score,UT-SCC-40; [13],16 ± 1.1 DSS
same,drug sensitivity score,UT-SCC-40; [14],2.93 ± 3.1 DSS
same,drug sensitivity score,UT-SCC-40; [15],14.5 ± 1.1 DSS
same,drug sensitivity score,UT-SCC-40; [16],3.37 ± 1.5 DSS
same,drug sensitivity score,UT-SCC-40; [17],10.2 ± 1.3 DSS
same,drug sensitivity score,UT-SCC-106A; [13],10.9 ± 1.4 DSS
same,drug sensitivity score,UT-SCC-106A; [14],0 DSS
same,drug sensitivity score,UT-SCC-106A; [15],13.7 ± 2.2 DSS
same,drug sensitivity score,UT-SCC-106A; [16],0.133 ± 0.23 DSS
same,drug sensitivity score,UT-SCC-106A; [17],13.7 ± 1.7 DSS
same,drug sensitivity score,UT-SCC-44 [4]; [13],0.233 ± 0.4 DSS
same,drug sensitivity score,UT-SCC-44 [4]; [14],0 DSS
same,drug sensitivity score,UT-SCC-44 [4]; [15],0 DSS
same,drug sensitivity score,UT-SCC-44 [4]; [16],0 DSS
same,drug sensitivity score,UT-SCC-44 [4]; [17],0 DSS
same,drug sensitivity score,UT-SCC-42A [5]; [13],9.73 ± 3.1 DSS
same,drug sensitivity score,UT-SCC-42A [5]; [14],0.767 ± 1.3 DSS
same,drug sensitivity score,UT-SCC-42A [5]; [15],12.7 ± 1.4 DSS
same,drug sensitivity score,UT-SCC-42A [5]; [16],4.33 ± 1.3 DSS
same,drug sensitivity score,UT-SCC-42A [5]; [17],10.3 ± 2.3 DSS
same,drug sensitivity score,UT-SCC-28; [13],0 DSS
same,drug sensitivity score,UT-SCC-28; [14],0 DSS
same,drug sensitivity score,UT-SCC-28; [15],0.233 ± 0.32 DSS
same,drug sensitivity score,UT-SCC-28; [17],0 DSS
same,drug sensitivity score,UT-SCC-14 [6]; [13],13.8 ± 3 DSS
same,drug sensitivity score,UT-SCC-14 [6]; [14],9.3 ± 6.4 DSS
same,drug sensitivity score,UT-SCC-14 [6]; [15],12.5 ± 1.4 DSS
same,drug sensitivity score,UT-SCC-14 [6]; [16],7.33 ± 3.8 DSS
same,drug sensitivity score,UT-SCC-14 [6]; [17],12.1 ± 4.1 DSS
same,relative IC50,UT-SCC-24A; [13],8.03 nM
same,relative IC50,UT-SCC-24A; [15],9.88 nM
same,relative IC50,UT-SCC-24A; [17],12.8 nM
same,relative IC50,UT-SCC-42B [7]; [13],17.3 nM
same,relative IC50,UT-SCC-42B [7]; [15],17.7 nM
same,relative IC50,UT-SCC-42B [7]; [17],27.5 nM
same,relative IC50,UT-SCC-73 [8],32 nM
same,relative IC50,UT-SCC-81 [9]; [13],6.81 nM
same,relative IC50,UT-SCC-81 [9]; [15],15.3 nM
same,relative IC50,UT-SCC-81 [9]; [17],35.7 nM
same,relative IC50,UT-SCC-44 [10]; [14],> 989 nM
same,relative IC50,UT-SCC-44 [10]; [17],> 989 nM
same,relative IC50,UT-SCC-42A [11]; [13],28.9 nM
same,relative IC50,UT-SCC-42A [11]; [15],11.4 nM
same,relative IC50,UT-SCC-42A [11]; [16],21.2 nM
same,relative IC50,UT-SCC-42A [11]; [17],19 nM
same,relative IC50,UT-SCC-14 [12]; [13],30.7 nM
same,relative IC50,UT-SCC-14 [12]; [15],39.6 nM
same,relative IC50,UT-SCC-14 [12]; [16],47.4 nM
same,relative IC50,UT-SCC-14 [12]; [17],40.8 nM
